Consider 3 molecules from patent publication US11806367B2, “Methods of treating lysosomal disorders” (The Regents of the University of California, priority 2017, dated 2023).

One data set relates to Ctns^−/− mice. As to the method: Ctns^−/− mice were exposed to myeloablative drugs currently used in clinic for HSC transplantation, Busulfan (Bu) and Cyclophosphamide (Cy) to test if drug-mediated myeloablation allow efficient engraftment of Ctns-expressing HSC in the preclinical model, decreased tissue cystine and to determine if any unexpected toxicity occurs because of cystinosis. Drugs were injected intraperitoneally (IP) in Ctns^−/− mice and WT mice as controls.

For data set [1] the following is noted: affected patients; cited from earlier work.

Read-outs that look alike come from different tables or passages of the source.

In the case of `O=P1(N(CCCl)CCCl)NCCCO1` (stereo not shown) [Cy, Cyclophosphamide], the “toxicity in Ctns^−/− mice” value in the data set on Ctns^−/− mice (IP injection, 4 months post-transplant, compared to WT controls) is “not toxic”.

On to `CS(=O)(=O)OCCCCOS(C)(=O)=O` [Bu, Busulfan], for which the “donor cell engraftment measured in the peripheral blood” value in the data set with Ctns^−/− mice (4 months post-transplant) stood at 94.0±0.8%. For the same molecule, the “toxicity in Ctns^−/− mice” value with Ctns^−/− mice (mouse, in vivo, ip) was “not toxic”.

For the molecule `NCCS` [cysteamine, mercaptoethylamine], in data set [1], the “effect on renal Fanconi syndrome” value was “has no effect”.
